# Assay results from patent publication US6335356B1, “Method of treating a patient by parenteral administration of a lipophilic compound” (Sugen, Inc., priority 1994, dated 2002).
# How the values were obtained:
# [1] = Physical stability (precipitation) of leflunomide solutions over time; assay type: physicochemical
# [2] = assay type: physicochemical
# Source text: The pH of the formulations can be adjusted with a pharmaceutically acceptable excipient. For example, the apparent pH of the POLYSORBATE 80®:alcohol formulations can be adjusted with citric acid.
# [3] = Ability of leflunomide solutions to be diluted with aqueous solutions; assay type: physicochemical; conditions: for Solubility: organic solvent or mixture, read-out: concentration soluble and allowing dilution with aqueous solutions
# Procedure: (§1) Leflunomide has a low solubility in standard formulations used to dissolve compounds for parenteral administration. For example, the solubility of leflunomide in VPD (126 mg alcohol, 40 mg POLYSORBATE 80®, 3 mg citric acid, 15 mg benzyl alcohol, and 325 mg PEG MW300; also referred to as PBTE) is about 60 mg/ml. Parenterally administered VPD formulations should be diluted at least 1:2 with a pharmaceutically acceptable aqueous solution to avoid toxic effects. Such dilution can result in precipitation of lipophilic compounds. For leflunomide, a concentration in VPD greater than about 5 mg/ml precipitates when diluted 1:2 with a pharmaceutically aqueous solution such as WFI. Leflunomide was solubilized in varying ratios of POLYSORBATE 80® and alcohol. The leflunomide solutions were then tested for the ability to dilute with aqueous solutions.
# [4] = Solubility of leflunomide in vehicles (POLYSORBATE 80:alcohol ratios, alcohol, VPD/PBTE); assay type: physicochemical
# Procedure: as §1, with “WFI.” for “WFI. Leflunomide was solubilized in varying ratios of POLYSORBATE 80® and alcohol. The leflunomide solutions were then tested for the ability to dilute with aqueous solutions.”
# Increasing the solubility of leflunomide allows more leflunomide to be administered to a patient via parenteral administration. The formulations described by the present invention can use alcohol and a surfactant to solubilize leflunomide. Leflunomide is soluble in alcohol at 100 mg/ml. The surfactant is added to allow for the dilution into a pharmaceutically acceptable aqueous solution prior to injection.
# Leflunomide was solubilized in varying ratios of POLYSORBATE 80® and alcohol. The leflunomide solutions were then tested for the ability to dilute with aqueous solutions.
# As noted above, the stability of leflunomide in solution is pH dependent. To stabilize leflunomide varying amounts of citric acid (1 to 20 mg/ml) were added to both 33%T:66%E and 66%T:33%E. The citric acid decreased the apparent pH of the solutions.
compound,measurement,setting,value
"Cc1oncc1C(=O)Nc1ccc(C(F)(F)F)cc1 [Leflunomide, 5-methylisoxazole-4 carboxylic acid-(4-trifluromethyl)-anilide]",remaining in solution,"[1]; 20 mg/ml in 33%T:66%E with citric acid, 2-8° C. for 7 days",precipitate started to occur
same,remaining in solution,"[1]; 20 mg/ml in 33%T:66%E with either 4 or 6 mg/ml citric acid, 4° C.",remains in solution
same,remaining in solution,"[1]; 20 mg/ml in 33%T:66%E with either 4 or 6 mg/ml citric acid, room temperature",remains in solution
same,remaining in solution with time,"[1]; 25 mg/ml in 33%T:66%E, diluted with aqueous solutions, room temperature (22° C. to 26° C.), over 3 days",falls out of solution
same,stability in solution,[2],breakdown to N-(4-trifluoromethylphenyl)-2-cyano-3-hydroxycrotonamide
same,Solubility,"[3]; POLYSORBATE 80:alcohol vehicle 33%T:66%E, in 33%T:66%E",25 mg/mL
same,Solubility,"[3]; POLYSORBATE 80:alcohol vehicle 66%T:33%E, in 66%T:33%E",50 mg/mL
same,concentration in VPD that precipitates when diluted 1:2,[3]; VPD diluted 1:2 with pharmaceutically aqueous solution such as WFI,greater than 5 mg/ml
same,solubility after addition of citric acid,[4]; 33%:66%E with citric acid 1 to 20 mg/ml,no longer soluble to the same extent
same,Solubility,"[4]; VPD (PBTE) parenteral vehicle, organic solvent or mixture, VPD (126 mg alcohol, 40 mg POLYSORBATE 80, 3 mg citric acid, 15 mg benzyl alcohol, 325 mg PEG MW300; also PBTE), read-out: solubility in VPD",~60 mg/mL
same,Solubility,"[4]; alcohol, organic solvent or mixture, read-out: soluble in alcohol at",100 mg/mL
same,Solubility,"[4]; vehicle 33%T:66%E (POLYSORBATE 80:alcohol v/v), 100 mg/ml",Insoluble
same,Solubility,"[4]; vehicle 33%T:66%E, 25 mg/ml",Soluble
same,Solubility,"[4]; vehicle 33%T:66%E, 50 mg/ml",Soluble
same,Solubility,"[4]; vehicle 50%T:50%E, 50 mg/ml",Soluble
same,Solubility,"[4]; vehicle 50%T:50%E, 55 mg/ml",Soluble
same,Solubility,"[4]; vehicle 50%T:50%E, 60 mg/ml",Soluble
same,Solubility,"[4]; vehicle 50%T:50%E, 75 mg/ml",Soluble
same,Solubility,"[4]; vehicle 50%T:50%E, 100 mg/ml",Soluble
same,Solubility,"[4]; vehicle 66%T:33%E, 50 mg/ml",Soluble
same,Solubility,"[4]; vehicle 66%T:33%E, 100 mg/ml",Insoluble
same,Solubility,"[4]; vehicle PBTE6C:WFI, 2.5 mg/ml",Soluble
same,Solubility,"[4]; vehicle alcohol, 100 mg/ml",Soluble
